# Data as given in BigSolDB 2.1.
smiles,measurement,setting,value
COc1cc(N)nc(OC)n1,solubility (mole fraction),"in DMF, 283.15 K",0.055
same,solubility (mole fraction),"in DMF, 288.15 K",0.0726
same,solubility (mole fraction),"in DMF, 293.15 K",0.0949
same,solubility (mole fraction),"in DMF, 298.15 K",0.123
same,solubility (mole fraction),"in DMF, 303.15 K",0.158
same,solubility (mole fraction),"in DMF, 308.15 K",0.201
same,solubility (mole fraction),"in DMF, 313.15 K",0.254
same,solubility (mole fraction),"in DMF, 318.15 K",0.319
same,solubility (mole fraction),"in DMF, 323.15 K",0.397
same,solubility (mole fraction),"in ethanol, 283.15 K",0.0101
same,solubility (mole fraction),"in ethanol, 288.15 K",0.013
same,solubility (mole fraction),"in ethanol, 293.15 K",0.0164
same,solubility (mole fraction),"in ethanol, 298.15 K",0.0205
same,solubility (mole fraction),"in ethanol, 303.15 K",0.0253
same,solubility (mole fraction),"in ethanol, 308.15 K",0.0313
same,solubility (mole fraction),"in ethanol, 313.15 K",0.0383
same,solubility (mole fraction),"in ethanol, 318.15 K",0.0463
same,solubility (mole fraction),"in ethanol, 323.15 K",0.0561
same,solubility (mole fraction),"in isopropanol, 283.15 K",0.00553
same,solubility (mole fraction),"in isopropanol, 288.15 K",0.00742
same,solubility (mole fraction),"in isopropanol, 293.15 K",0.0101
same,solubility (mole fraction),"in isopropanol, 298.15 K",0.0133
same,solubility (mole fraction),"in isopropanol, 303.15 K",0.0175
same,solubility (mole fraction),"in isopropanol, 308.15 K",0.023
same,solubility (mole fraction),"in isopropanol, 313.15 K",0.0297
same,solubility (mole fraction),"in isopropanol, 318.15 K",0.038
same,solubility (mole fraction),"in isopropanol, 323.15 K",0.0484
same,solubility (mole fraction),"in methanol, 283.15 K",0.0181
same,solubility (mole fraction),"in methanol, 288.15 K",0.0214
same,solubility (mole fraction),"in methanol, 293.15 K",0.0254
same,solubility (mole fraction),"in methanol, 298.15 K",0.0301
same,solubility (mole fraction),"in methanol, 303.15 K",0.0352
same,solubility (mole fraction),"in methanol, 308.15 K",0.0414
same,solubility (mole fraction),"in methanol, 313.15 K",0.0482
same,solubility (mole fraction),"in methanol, 318.15 K",0.0559
same,solubility (mole fraction),"in methanol, 323.15 K",0.0643
same,solubility (mole fraction),"in water, 283.15 K",0.000298
same,solubility (mole fraction),"in water, 288.15 K",0.000347
same,solubility (mole fraction),"in water, 293.15 K",0.000405
same,solubility (mole fraction),"in water, 298.15 K",0.000464
same,solubility (mole fraction),"in water, 303.15 K",0.000534
same,solubility (mole fraction),"in water, 308.15 K",0.000614
same,solubility (mole fraction),"in water, 313.15 K",0.000695
same,solubility (mole fraction),"in water, 318.15 K",0.000788
same,solubility (mole fraction),"in water, 323.15 K",0.000897
